# Earlier results, collected in US7094785B1, “Method of treating polycythemia vera” (Cornell Research Foundation, Inc., priority 2002, dated 2006).
# Counter-ions that a name gives are not always drawn.
# Test system: essential thrombocythemia or myelofibrosis
structure (smiles),measurement,value
"Cc1ccc(NC(=O)c2ccc(CN3CCN(C)CC3)cc2)cc1Nc1nccc(-c2cccnc2)n1 [imatinib mesylate, N-{5-[4-(4-methyl-piperazino-methyl)-benzoylamido]-2-methylphenyl}-4-(3-pyridyl)-2-pyrimidine-amine]",effectiveness in other myeloproliferative disorders,not effective
